In US10723727B2, “Tubulysin analogs and methods for their preparation” (priority 2016, dated 2020):

Tests used:
[1] = system: MDA-MB-361-DYT2 (breast cancer) cells; assay: In vitro cell assay (MTS cell viability), MDA-MB-361-DYT2; format: cell-based; details: 96 h, free compounds; 96 hours after treatment
Outline: (§1)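 Cells seeded 24 h before treatment with antibody-drug conjugates or free compounds, 3-fold serial dilutions at 10 concentrations in duplicate. Viability read by MTS assay 96 h after treatment as % of untreated control; IC50 from four-parameter logistic fit.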

HT-29 cells = assay: In vitro cell assay (MTS cell viability), HT-29 (target non-expressing); format: cell-based; details: Homo sapiens, HT-29, 96 h, free compounds; 96 hours after treatment; read-out: HT29 IC50
Method: In Vitro Cell Assay Procedure
Target expressing (BT474 (breast cancer), N87 (gastric cancer), HCC1954 (breast cancer), MDA-MB-361-DYT2 (breast cancer)) or non-expressing (HT-29) cells were seeded in 96-well cell culture plates for 24 hours before treatment. Cells were treated with 3-fold serially diluted antibody-drug conjugates or free compounds (i. e. no antibody conjugated to the drug) in duplicate at 10 concentrations. Cell viability was determined by CellTiter 96® AQueous One Solution Cell Proliferation MTS Assay (Promega, Madison Wis.) 96 hours after treatment. Relative cell viability was determined as percentage of untreated control. IC50 values were calculated using a four parameter logistic model #203 with XLfit v4. 2 (IDBS, Guildford, Surry, UK).

[2] = biological target: T1, tubulin/RB3-stathmin-like-domain (RB3-SLD-tdm) complex (Sus scrofa, UniProt P02550+P02554); assay: Tubulin Peptide-Binding Site Competition Assay (fluorescence polarization); set-up: species or system Porcine; details: FP competition with BODIPY-labeled vinca peptide probe; read after five hours at 22° C.; read-out: Tubulin Peptide-Binding Site Competition Assay IC50
T1 construct: purchased Cytoskeleton, Inc. T240; host or cells: RB3-SLD was made in house in E. coli
Outline: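 The BODIPY vinca-peptide probe was premixed with test compound and then added to porcine tubulin/RB3-SLD, at final concentrations of 3 nM probe, 6 nM tubulin and 100 nM RB3-SLD. The buffer was PIPES pH 7.0 with Tween 20, MgCl2 and EGTA, and 11-point dilutions were run in duplicate. IC50 was fitted from the fluorescence polarization decrease and converted to Ki.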

[3] = system: N87 (gastric cancer) cells; assay: In vitro cell assay (MTS cell viability), N87; format: cell-based; details: 96 h, free compounds; 96 hours after treatment
Outline: as §1

SMILES: CC[C@H](C)[C@H](NC(=O)C12CC(CN1C)C2)C(=O)N(C)[C@H](C[C@@H](OC(C)=O)c1nc(C(=O)N[C@@H](Cc2ccccc2)C[C@H](C)C(=O)OC)cs1)C(C)C [#B17, methyl (2S,4R)-4-[({2-[(1R,3R)-1-(acetyloxy)-4-methyl-3-(methyl{N-[(2-methyl-2-azabicyclo[2.1.1]hex-1-yl)carbonyl]-L-isoleucyl}amino)pentyl]-1,3-thiazol-4-yl}carbonyl)amino]-2-methyl-5-phenylpentanoate]
- IC50 [1]: 0.04 nM
- IC50 (HT-29 cells): 0.037 nM
- IC50 [2]: 19.2 nM
- IC50 [3]: 0.386 nM

SMILES: CC[C@H](C)[C@H](NC(=O)[C@@]1(C)CCCN1C)C(=O)N(C)[C@H](C[C@@H](OC(C)=O)c1nc(C(=O)N[C@@H](Cc2ccccc2)C[C@H](C)C(=O)OC)cs1)C(C)C [#B5, 1,2-dimethyl-D-prolyl-N-[(1R,3R)-1-(acetyloxy)-1-(4-{[(2R,4S)-5-methoxy-4-methyl-5-oxo-1-phenylpentan-2-yl]carbamoyl}-1,3-thiazol-2-yl)-4-methylpentan-3-yl]-N-methyl-L-isoleucinamide]
- IC50 [1]: 0.361 nM
- IC50 (HT-29 cells): 1.11 nM
- IC50 [2]: 22.4 nM
- IC50 [3]: 0.763 nM

SMILES: CC[C@H](C)[C@H](NC(=O)[C@@]1(C)CCCN1C)C(=O)N(C)[C@H](C[C@@H](OC(C)=O)c1nc(C(=O)N[C@@H](Cc2ccccc2)[C@@H](O)C(=O)OC)cs1)C(C)C [#B51, 1,2-dimethyl-D-prolyl-N-[(1R,3R)-1-(acetyloxy)-1-(4-{[(2S,3R)-3-hydroxy-4-methoxy-4-oxo-1-phenylbutan-2-yl]carbamoyl}-1,3-thiazol-2-yl)-4-methylpentan-3-yl]-N-methyl-L-isoleucinamide]
- IC50 [1]: 2.94 nM
- IC50 (HT-29 cells): 2.2 nM
- IC50 [2]: 11.7 nM
- IC50 [3]: 7.78 nM

SMILES: CC[C@H](C)[C@H](NC(=O)[C@@]1(C)CCCN1C)C(=O)N(C)[C@H](C[C@@H](OC(C)=O)c1nc(C(=O)NCCn2nnc3ccccc32)cs1)C(C)C [#B79, 1,2-dimethyl-D-prolyl-N-[(1R,3R)-1-(acetyloxy)-1-(4-{[2-(1H-benzotriazol-1-yl)ethyl]carbamoyl}-1,3-thiazol-2-yl)-4-methylpentan-3-yl]-N-methyl-L-isoleucinamide]
- IC50 [1]: 5.69 nM
- IC50 (HT-29 cells): 4.39 nM
- IC50 [2]: 8.6 nM
- IC50 [3]: 11.2 nM

SMILES: CC[C@H](C)[C@H](NC(=O)[C@@]1(C)CCCN1C)C(=O)N(C)[C@H](C[C@@H](OC(C)=O)c1nc(C(=O)N[C@H](COCc2ccccc2)Cc2ccccc2)cs1)C(C)C [#B61, 1,2-dimethyl-D-prolyl-N-[(1R,3R)-1-(acetyloxy)-1-(4-{[(2S)-1-(benzyloxy)-3-phenylpropan-2-yl]carbamoyl}-1,3-thiazol-2-yl)-4-methylpentan-3-yl]-N-methyl-L-isoleucinamide]
- IC50 [1]: 23.4 nM
- IC50 (HT-29 cells): 14.7 nM
- IC50 [2]: 19.1 nM
- IC50 [3]: 38.5 nM

SMILES: CC[C@H](C)[C@H](NC(=O)[C@@]1(C)CCCN1C)C(=O)N(C)[C@H](C[C@@H](OC(C)=O)c1nc(C(=O)N[C@H](CNS(C)(=O)=O)Cc2ccccc2)cs1)C(C)C [#B58, 1,2-dimethyl-D-prolyl-N-{(1R,3R)-1-(acetyloxy)-4-methyl-1-[4-({(2S)-1-[(methylsulphonyl)amino]-3-phenylpropan-2-yl}carbamoyl)-1,3-thiazol-2-yl]pentan-3-yl}-N-methyl-L-isoleucinamide]
- IC50 [1]: 2.26 nM
- IC50 (HT-29 cells): 1.49 nM
- IC50 [2]: 5 nM
- IC50 [3]: 5.63 nM

SMILES: CC[C@H](C)[C@H](NC(=O)[C@@]1(C)CCCN1C)C(=O)N(C)[C@H](C[C@@H](OC(=O)NC)c1nc(C(=O)N[C@@H](Cc2ccc(N)cc2)C[C@H](C)C(=O)O)cs1)C(C)C [#B30, 1,2-dimethyl-D-prolyl-N-{(1R,3R)-1-(4-{[(2R,4S)-1-(4-aminophenyl)-4-carboxypentan-2-yl]carbamoyl}-1,3-thiazol-2-yl)-4-methyl-1-[(methylcarbamoyl)oxy]pentan-3-yl}-N-methyl-L-isoleucinamide]
- IC50 [1]: 3.27 nM
- IC50 (HT-29 cells): 1.81 nM
- IC50 [2]: 3.2 nM
- IC50 [3]: 2.67 nM

SMILES: CC[C@H](C)[C@H](NC(=O)[C@@]1(C)CCCN1C)C(=O)N(C)[C@H](C[C@@H](OC(=O)N(C)C)c1nc(C(=O)N[C@@H](Cc2ccc(N)cc2)C[C@H](C)C(=O)O)cs1)C(C)C [#B31, 1,2-dimethyl-D-prolyl-N-{(1R,3R)-1-(4-{[(2R,4S)-1-(4-aminophenyl)-4-carboxypentan-2-yl]carbamoyl}-1,3-thiazol-2-yl)-1-[(dimethylcarbamoyl)oxy]-4-methylpentan-3-yl}-N-methyl-L-isoleucinamide]
- IC50 [1]: 4.04 nM
- IC50 (HT-29 cells): 3.86 nM
- IC50 [2]: 3.1 nM
- IC50 [3]: 3.83 nM

SMILES: CC[C@H](C)[C@H](NC(=O)C12CCCC(CCC1)N2C)C(=O)N(C)[C@H](C[C@@H](OC(C)=O)c1nc(C(=O)N[C@@H](Cc2ccccc2)C[C@H](C)C(=O)OC)cs1)C(C)C [#B16, methyl (2S,4R)-4-[({2-[(1R,3R)-1-(acetyloxy)-4-methyl-3-(methyl{N-[(9-methyl-9-azabicyclo[3.3.1]non-1-yl)carbonyl]-L-isoleucyl}amino)pentyl]-1,3-thiazol-4-yl}carbonyl)amino]-2-methyl-5-phenylpentanoate]
- IC50 [1]: < 0.064 nM
- IC50 (HT-29 cells): < 0.026 nM
- IC50 [2]: 10.4 nM
- IC50 [3]: < 0.042 nM

SMILES: CC[C@H](C)[C@H](NC(=O)[C@@]1(C)CCCN1C)C(=O)N(C)[C@H](C[C@@H](OC(C)=O)c1nc(C(=O)NC(CO)Cc2ccccc2)cs1)C(C)C (stereo partly drawn) [#B50, 1,2-dimethyl-D-prolyl-N-[(1R,3R)-1-(acetyloxy)-1-{4-[(1-hydroxy-3-phenylpropan-2-yl)carbamoyl]-1,3-thiazol-2-yl}-4-methylpentan-3-yl]-N-methyl-L-isoleucinamide]
- IC50 [1]: 12.1 nM
- IC50 (HT-29 cells): 8.84 nM
- IC50 [2]: 8.6 nM
- IC50 [3]: 28.1 nM

SMILES: CC[C@H](C)[C@H](NC(=O)[C@@]1(C)CCCN1C)C(=O)N(C)[C@H](C[C@@H](O)c1nc(C(=O)N[C@@H](Cc2ccccc2)C[C@H](C)C(=O)O)cs1)C(C)C [#B15, 1,2-dimethyl-D-prolyl-N-[(1R,3R)-1-(4-{[(2R,4S)-4-carboxy-1-phenylpentan-2-yl]carbamoyl}-1,3-thiazol-2-yl)-1-hydroxy-4-methylpentan-3-yl]-N-methyl-L-isoleucinamide]
- IC50 [1]: > 100 nM
- IC50 (HT-29 cells): > 100 nM
- IC50 [2]: 7 nM
- IC50 [3]: > 100 nM

SMILES: CC[C@H](C)[C@H](NC(=O)[C@@]1(C)CCCN1C)C(=O)N(C)[C@H](C[C@@H](OC(C)=O)c1nc(C(=O)N[C@@H](Cc2ccccc2)c2nccs2)cs1)C(C)C [#B78, 1,2-dimethyl-D-prolyl-N-[(1R,3R)-1-(acetyloxy)-4-methyl-1-(4-{[(1S)-2-phenyl-1-(1,3-thiazol-2-yl)ethyl]carbamoyl}-1,3-thiazol-2-yl)pentan-3-yl]-N-methyl-L-isoleucinamide]
- IC50 [1]: 19.9 nM
- IC50 (HT-29 cells): 14.5 nM
- IC50 [2]: 9.3 nM
- IC50 [3]: 39.9 nM

SMILES: CC[C@H](C)[C@H](NC(=O)C12CCC(CC1)N2C)C(=O)N(C)[C@H](C[C@@H](OC(C)=O)c1nc(C(=O)N[C@@H](Cc2ccccc2)C[C@H](C)C(=O)OC)cs1)C(C)C [#B13, methyl (2S,4R)-4-[({2-[(1R,3R)-1-(acetyloxy)-4-methyl-3-{methyl[(2S,3S)-3-methyl-2-{[(7-methyl-7-azabicyclo[2.2.1]hept-1-yl)carbonyl]amino}pentanoyl]amino}pentyl]-1,3-thiazol-4-yl}carbonyl)amino]-2-methyl-5-phenylpentanoate]
- IC50 [1]: < 0.036 nM
- IC50 (HT-29 cells): < 0.022 nM
- IC50 [2]: 3.7 nM
- IC50 [3]: < 0.061 nM

SMILES: CC[C@H](C)[C@H](NC(=O)[C@@]1(C)CCCN1C)C(=O)N(C)[C@H](C[C@@H](OC(C)=O)c1nc(C(=O)N[C@@H](Cc2ccc(N)cc2)C[C@H](C)C(=O)O)cs1)C(C)C [#B9, 1,2-dimethyl-D-prolyl-N-[(1R,3R)-1-(acetyloxy)-1-(4-{[(2R,4S)-1-(4-aminophenyl)-4-carboxypentan-2-yl]carbamoyl}-1,3-thiazol-2-yl)-4-methylpentan-3-yl]-N-methyl-L-isoleucinamide]
- IC50 [1]: 0.765 nM
- IC50 (HT-29 cells): 0.642 nM
- IC50 [2]: 2.5 nM
- IC50 [3]: 1.07 nM

SMILES: CC[C@H](C)[C@H](NC(=O)[C@@]1(C)CCCN1C)C(=O)N(C)[C@H](C[C@@H](OC(C)=O)c1nc(C(=O)N[C@@H](Cc2ccc(N)cc2)c2nccs2)cs1)C(C)C [#B80, 1,2-dimethyl-D-prolyl-N-[(1R,3R)-1-(acetyloxy)-1-(4-{[(1S)-2-(4-aminophenyl)-1-(1,3-thiazol-2-yl)ethyl]carbamoyl}-1,3-thiazol-2-yl)-4-methylpentan-3-yl]-N-methyl-L-isoleucinamide]
- IC50 [1]: 4.21 nM
- IC50 (HT-29 cells): 4.63 nM
- IC50 [2]: 6.5 nM
- IC50 [3]: 18.5 nM
